Some test systems named below: K-562 leukemia; NCI-H522 lung; SK-MEL-5 melanoma; SNB-75 CNS; SR leukemia; A498 renal; BT-549 breast; COLO 205 colon; HCC-2998 colon; HS 578T breast.
Holding throughout (assay): NCI tumour cell line growth inhibition, 48 h

This passage reports TGI and GI50 results from PubChem BioAssay (NCI).

Values after ≈ are worked out from the molar mass of the structure shown. Values joined by “and” are separate entries in the source; they are usually repeats but may differ in a detail not shown here. Equal entries are not always repeated.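 Where inhibition never reached the appropriate level, the endpoint shown equals the highest concentration tested. Otherwise, values were interpolated linearly from a five-concentration, 48-hour dose response in 96-well plates. Here, GI50 denotes the concentration required for 50% inhibition of growth. TGI: total growth inhibition.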

Consider `CCOC(=O)C1CCn2c(nc3c2c(=O)n(C)c(=O)n3C)S1` (centres undefined), for which the TGI with K-562 leukemia, with NCI-H522 lung, in the test with SK-MEL-5 melanoma, with SNB-75 CNS and in the test with SR leukemia was more than 100 µM throughout.

Take `COC(=O)C1C(O)CCC2CN3CCc4c([nH]c5cccc(OC)c45)C3CC21` (centres undefined): the TGI in the test with A498 renal, with BT-549 breast, with COLO 205 colon, in the test with HCC-2998 colon, with HS 578T breast and with K-562 leukemia was more than 100 µM throughout. Besides, the TGI in the test on NCI-H522 lung, with SNB-75 CNS and with SR leukemia was more than 100 µM in each case.

`O=C(CCN1CC2CCC(CC2)C1)c1cccs1`: the TGI with A498 renal is more than 100 µM; in the test with BT-549 breast it was 39 µM; in the test on COLO 205 colon, 34.7 µM; in the test with HCC-2998 colon, 29 µM; in the test on HS 578T breast it was 71.9 µM; with K-562 leukemia, 44 µM. Further, the TGI in the test with NCI-H522 lung is 36.3 µM; in the test on SK-MEL-5 melanoma, more than 100 µM; with SNB-75 CNS it was 35 µM; in the test with SR leukemia it was 24.6 µM.

As for `N#CC(c1ccccc1)N1CCCN(C(C#N)c2ccccc2)C1c1ccccc1O` (centres undefined), the TGI with A498 renal, in the test on BT-549 breast, with COLO 205 colon, with HCC-2998 colon, in the test with HS 578T breast and with K-562 leukemia was more than 100 µM throughout. Moreover, the TGI in the test on NCI-H522 lung, in the test with SK-MEL-5 melanoma, in the test on SNB-75 CNS and in the test on SR leukemia was more than 100 µM throughout.

As to `CC1(C)CC(=O)C2=C(C1)NC(SSC1=C(C#N)C(c3ccc(F)cc3)C3=C(CC(C)(C)CC3=O)N1)=C(C#N)C2c1ccc(F)cc1` (centres undefined), the GI50 in the test with BT-549 breast was 30 µg/mL (≈ 45.8 µM); with COLO 205 colon, 29.1 µg/mL; in the test on HS 578T breast it was 76.9 µg/mL (≈ 117 µM); in the test with K-562 leukemia it was 17.1 µg/mL; in the test with SK-MEL-5 melanoma, 22.9 µg/mL; in the test with SNB-75 CNS it was 41.3 µg/mL. Moreover, the GI50 in the test on SR leukemia is 48.9 µg/mL. Moreover, the TGI is 55.4 µg/mL in the test on BT-549 breast; 55.8 µg/mL with COLO 205 colon; more than 150 µg/mL with HS 578T breast; more than 150 µg/mL with K-562 leukemia; 44.7 µg/mL in the test on SK-MEL-5 melanoma; more than 150 µg/mL in the test on SNB-75 CNS. Besides, the TGI in the test with SR leukemia is more than 150 µg/mL.

`C[C@]12CCC(=O)C=C1CC[C@@H]1[C@@H]2[C@@H](O)C[C@@]2(C)[C@H]1CC[C@]2(O)C(=O)CO`: the TGI in the test on A498 renal, with BT-549 breast, in the test with COLO 205 colon, in the test with HCC-2998 colon, with HS 578T breast and with K-562 leukemia was more than 100 µM each time. The TGI with NCI-H522 lung, in the test with SK-MEL-5 melanoma, in the test on SNB-75 CNS and in the test on SR leukemia was more than 100 µM in each case.

For `CC(=O)N(C)c1ccc2c(ccc[n+]2[O-])c1[N+](=O)[O-]`, the TGI in the test on A498 renal, with COLO 205 colon, in the test on HCC-2998 colon, with K-562 leukemia, with SK-MEL-5 melanoma and in the test on SNB-75 CNS was more than 100 µM in each case.

Take `Nc1nc(N)c2c(n1)NC(c1ccccc1)CC(/C=C/c1ccc(Cl)cc1)=N2` (centres undefined): the TGI worked out at 32.9 µM with A498 renal; 37.9 µM in the test with BT-549 breast; 7.5 µM in the test on COLO 205 colon; 9.94 µM with HS 578T breast; 9.61 µM in the test on K-562 leukemia; 5.32 µM in the test on NCI-H522 lung. The TGI was 23.4 µM in the test with SK-MEL-5 melanoma and 33.9 µM with SNB-75 CNS.

For the molecule `O=[n+]1c2c(n([O-])c3ccccc31)-c1cccc3cccc-2c13`, the TGI in the test on A498 renal, in the test with COLO 205 colon, in the test with HCC-2998 colon, in the test with HS 578T breast, in the test on K-562 leukemia and in the test with NCI-H522 lung was more than 100 µM in each case. The TGI with SK-MEL-5 melanoma is more than 100 µM; in the test with SNB-75 CNS, 94.7 µM; with SR leukemia, more than 100 µM.

As for `CC1(C)CCC2(C(=O)OC3OC(CO)C(O)C(O)C3O)CCC3(C)C(=CCC4C5(C)CCC(OC6OC(CO)C(O)C(O)C6O)C(C)(C)C5CCC43C)C2C1` (centres undefined), the TGI was more than 25 µM in the test with A498 renal; more than 25 µM with BT-549 breast; more than 25 µM in the test with COLO 205 colon; 9.83 µM with HCC-2998 colon; more than 25 µM with HS 578T breast; more than 25 µM in the test on K-562 leukemia. The TGI with NCI-H522 lung is 12.9 µM; in the test on SK-MEL-5 melanoma, more than 25 µM; with SNB-75 CNS, more than 25 µM; in the test on SR leukemia, 10.7 µM.

For `COc1ccc(/C=C(\C#N)c2nc(N)nc(N3N=C(C)CC3(C)C)n2)c(O)c1`, the TGI in the test on A498 renal is 69.7 µM; in the test with BT-549 breast, more than 100 µM; with COLO 205 colon it was 30.9 µM; in the test with HCC-2998 colon it was 38.2 µM; with HS 578T breast, 40 µM; in the test with K-562 leukemia it was 84.7 µM. The TGI in the test with NCI-H522 lung came to 38.9 µM; in the test on SK-MEL-5 melanoma it was 28.5 µM; with SR leukemia it was 35.7 µM.

In the case of `[O-][N+](CCO)(CCO)c1ncnc2nc[nH]c12`, the TGI in the test on A498 renal, with BT-549 breast, in the test with COLO 205 colon, in the test on HCC-2998 colon, with HS 578T breast and in the test on K-562 leukemia was more than 100 µM each time. Also, the TGI with NCI-H522 lung, with SK-MEL-5 melanoma, in the test with SNB-75 CNS and in the test on SR leukemia was more than 100 µM each time.

For the molecule `COC(=O)C1C(C)N1C` (centres undefined), the TGI in the test on COLO 205 colon, in the test with HCC-2998 colon, in the test with K-562 leukemia, with NCI-H522 lung, in the test with SK-MEL-5 melanoma and in the test on SNB-75 CNS was more than 100 µM throughout.

Consider `O=S1(=O)OC(c2ccc(O)cc2)(c2ccc(O)cc2)c2ccccc21`, for which the TGI in the test with A498 renal, in the test with BT-549 breast, in the test on COLO 205 colon, in the test on HCC-2998 colon, in the test with HS 578T breast and in the test with K-562 leukemia was more than 100 µM throughout. The TGI with NCI-H522 lung, with SK-MEL-5 melanoma and in the test on SNB-75 CNS was more than 100 µM throughout.

As for `CC(Sc1ccccc1)C(CO)(CO)[N+](=O)[O-]` (centres undefined), the TGI with HCC-2998 colon came out at 31.5 µM; in the test with K-562 leukemia it was 34.4 µM; in the test on NCI-H522 lung, 26.3 µM; in the test on SK-MEL-5 melanoma it was 25.8 µM; with SNB-75 CNS, 35.4 µM; in the test on SR leukemia, 5.72 µM.

For the molecule `C[C@]12CC[C@@H]3c4ccccc4CC[C@H]3[C@@H]1CC[C@@H]2O`, the TGI in the test on COLO 205 colon, with HCC-2998 colon, in the test with K-562 leukemia, in the test on NCI-H522 lung, in the test with SNB-75 CNS and in the test with SR leukemia was more than 100 µM each time.

`CC[C@@]1(O)C(=O)OCc2c1cc1n(c2=O)Cc2c-1nc1ccc(O)cc1c2CC[Si](C)(C)C`: the TGI in the test with A498 renal is 0.0279 µM; in the test on BT-549 breast it was 4.09 µM; in the test on COLO 205 colon it was 1.16 µM; in the test with HCC-2998 colon, 0.0641 µM and 0.0601 µM; in the test with NCI-H522 lung it was 0.299 µM; in the test on SK-MEL-5 melanoma it was 0.123 µM and 0.0438 µM. Further, the TGI in the test on SR leukemia was less than 0.001 µM.

Consider `Clc1ccc(Nc2nc(Cl)c3[nH]cnc3n2)cc1Cl`, for which the TGI was 34.9 µM in the test on A498 renal; 79.1 µM in the test on BT-549 breast; 37.9 µM with COLO 205 colon; 31.1 µM in the test with HCC-2998 colon; 56.3 µM with HS 578T breast; more than 100 µM in the test with K-562 leukemia. Also, the TGI in the test with NCI-H522 lung is 56.7 µM; in the test on SK-MEL-5 melanoma, 52.1 µM; in the test with SNB-75 CNS, 52.3 µM; with SR leukemia it was 55.7 µM.

For the molecule `Cc1cc(O)c(C(C)C)cc1CN1CCCCC1`, the TGI in the test with A498 renal, in the test on BT-549 breast, with COLO 205 colon, with HCC-2998 colon, in the test on HS 578T breast and in the test with K-562 leukemia was more than 100 µM each time. Besides, the TGI with NCI-H522 lung, with SK-MEL-5 melanoma and in the test on SNB-75 CNS was more than 100 µM in each case.

With `CC(=O)OC1CC(O)CC2=CCC3C4CCC(C(C)(O)C(O)CC5COC(=O)C5C)C4(C)CCC3C21C` (centres undefined), the TGI in the test on A498 renal, in the test with BT-549 breast, in the test with COLO 205 colon, in the test on HCC-2998 colon, in the test with HS 578T breast and in the test with K-562 leukemia was more than 25 µM throughout. For the same molecule, the TGI in the test on NCI-H522 lung, in the test with SK-MEL-5 melanoma, with SNB-75 CNS and in the test with SR leukemia was more than 25 µM in each case.

Take `C/C(=N\NC(=O)c1cccnc1)c1cccc(/C(C)=N/NC(=O)c2cccnc2)n1`: the GI50 was 4.86 µM in the test with A498 renal; 4.15 µM in the test on COLO 205 colon; 2.17 µM in the test with HCC-2998 colon; 3.04 µM in the test with K-562 leukemia; 1.58 µM with NCI-H522 lung; 2.05 µM with SK-MEL-5 melanoma. Besides, the GI50 in the test on SNB-75 CNS was 10.3 µM; with SR leukemia, 4.56 µM. Further, the TGI with A498 renal was 68.1 µM; with COLO 205 colon it was more than 100 µM; in the test on HCC-2998 colon, more than 100 µM; in the test with K-562 leukemia it was more than 100 µM; in the test on NCI-H522 lung it was 6.76 µM; in the test on SK-MEL-5 melanoma, 7.12 µM. Moreover, the results for the TGI with SNB-75 CNS and in the test with SR leukemia were 42.5 µM and more than 100 µM, respectively.

`Nc1ccc2c(c1)C(=O)N(O)C2=O`: the TGI with A498 renal, in the test on HCC-2998 colon, with K-562 leukemia, in the test with SNB-75 CNS and with SR leukemia was more than 100 µM throughout.
